Measurements reported in US4966962A, “Reverse analogue of actinomycin D” (Trustees of Boston University, priority 1988, dated 1990).

How the values were obtained:
[1] = tested on: supercoiled closed-circular pBR322 DNA; assay: Cleavage of closed circular pBR322 DNA; format: biochemical; conditions: 20° C., 1 h, Na2S2O4, FeCl2
Method: The cleavage of DNA was followed by monitoring of the conversion of supercoiled closed-circular pBR322 DNA to open-circular DNA (analyzed by agarose gel electrophoresis and quantitated by staining with 0.5 ug/mL of ethidium bromide for 30 min and densitometry; (Table II). SAD and RAD show strong DNA-cleaving ability in the presence of sodium hydrosulfite and ferrous chloride. Presumably, sodium hydrosulfite acts as a reducing agent and regenerates Fe(II) from Fe(III) to produce a continuous source of the active metal ion. When the DNA-cleaving reaction with the analogues was performed at 20° C., the ratio of cleaved DNA (open circular form DNA versus closed circular DNA) was almost maximum within 1 h. […] Cleavage of DNA by the analogues is aided by the actinomycin chromopeptide moiety, which acts as a site-specific binder to DNA, and is effected by the aminoquinone function which is chelated to the ferrous ion during the process, and this is the likely candidate which generates the radical species.
Plasmid DNA pBR322 (0.5 ug) was dissolved in /8 μL of a reaction buffer (5 mM […], 10 mM Tris-HCl). To this solution, 1 μL of the 10 mM aqueous solution of the agent containing 1 mM FeCl2 was added. The mixture was incubated for 0.5-2 h at 20° or 37° C. Then, the incubation mixture was mixed with 10 uL of sample loading buffer (50% glycerin in 2 X Boyer's buffer containing 0.01% bromophenol blue). Finally, 5 uL of the mixture was analyzed by 0.7% agarose gel electrophoresis (120 V, Boyer's buffer; the migration distance of bromophenol blue was 5.0 cm). The gel was stained with […] of ethidium bromide and then quantitated by densitometry.
^a Ten microliters of 200 u M pBR322 DNA nucelotides in UM 10 mM
TrisHCl (pH 7.8) and 50 mM NaCl, containing 4 mM Na2 --S2
O4 and 100 μM FeCl2, was incubated with drug concentration a
20° C. for 1 h; the reaction mixture was kept saturated with air
throughout the incubation period.
^b Percentage of DNA was calculated from the amounts of openand
closedcir- cular DNA in the incubation mixture.

B16 melanoma = assay: In vivo antitumor activity against B16 melanoma; set-up: species or system BDF1 mice
Method: ^a 0.2 mL of 1:5 (weight/volume) brei of B16 melanoma implanted
ip on day 0 in groups of nine BDF1 mice. Drugs administered ip^b
MST (range), median survival time in days (range of days for death of
individual animal). ^c % ILS (surv), percent increase in life span
(survivors on day 65/total injected).

P388 Leukemia = assay: Minimum effective dose in P388 tumor bearing mice; format: in vivo
Excerpt: ^a Drugs administered ip once on days 1, 5, and 9 starting 1 day afte
tumor implantation. Determinations were made from analysis of plotted
logdose response data. ^b MED (minimum effective dose) is the dose
(milligram/killogram) providing an increase in life span of 45% over

[2] = Maximum tolerated dose (LD10) in tumor-free male mice; conditions: ip days 1, 5, 9; deaths observed during 21 days; from plot of log dose vs percent mortality
Method: The analogues were also tested in tumor-free male mice for their LD10 values (Table XIV). The animals were given a broad range of doses (ip) on days 1, 5, and 9. The maximum tolerated doses of AMD and the analogues that caused death in only 10% of the tested animals in 21 days (i.e., LD10) were recorded as MTD. […] On the basis of these values, the calculated therapeutic index values of SAD is 96, and those of RAD I, II, and III are 60, 67, and 70, respectively.
control in P388 tumor bearing mice. ^c MTD (maximum tolerated dose) i
the lethal dose (milligram/kilogram) for 10% normal BDF1 male mice
days). Values were calculated from a plot of log dose vs percent

[3] = tested on: P388/S (adriamycin sensitive) leukemia; assay: Antitumor activity in vivo, P388/S leukemia; set-up: species or system mice; conditions: P388/S, at optimal dose, ip days 1, 5, 9
Method: The analogues were tested for their antitumor activities in P388 lymphocytic leukemia in male BDF1 mice.
^a Male CDF1 mic inoculated ip: 10^6 cells inoculum, day 0.
Drugs administered in 10% dimethyl sulfoxidesaline on days 1, 5, and 9. %
ILS = percent increase in life span. Fractions in parentheses = tumor fre
survivors/total on day 60^b. P388/S (adriamycin sensitive) and
P388/ADR (adriamycin resistant) tumors were evaluated in the same
experiment with agent listed.

colon 38 adenocarcinoma = assay: Activity against advanced colon carcinoma C38 tumor; format: in vivo, CDF1 mice; conditions: for % inhibn of tumor: tumors measured day 21
Method: In view of favorable activity agianst colon 26 carcinoma, further experiments using the active analogues were carried out on the advanced colon adenocarcinomas of mouse colon 38. […] The superiority of RAD III and SAD over AMD in inhibiting colon 38 carcinoma is evident from the data of both tumor weight inhibition and increases in survival time of the treated over nontreated mice and the larger number of long-term survivors produced by these analogues.
^a CDF1 mice were injected sc with colon 38 adenocarcinoma
fragments (70 mg) and treated with drugs with iv injections on day 1, 5,
and 9 following tumor imoplantation on day 0. ^b [100 (tumor weight o
treated mice/tumor weight of untreated mice)] × 100; data pooled
from two experiments, tumors measured on day 21 after implantation ^c
(Median survival time of treated mice/median survival of untreated mice)
× 100; in parenthesis, number of over 100 day survivors/number of […]

[4] = Toxic deaths in nontumored mice treated in parallel (colon 38 experiment); format: in vivo
Excerpt: × 100; in parenthesis, number of over 100 day survivors/number of
mice in a group of nontumored mice treated in parallel with the
tumorbearing mice and observed for 100 days.

[5] = tested on: CX-1 human colon adenocarcinoma; assay: Chemotherapy of human colon CX-1 tumor heterotransplanted in nude mice; format: in vivo, human tumor in athymic mice; conditions: for % T/C, optimal: TST 15, observed day 22
Method: Tables XI and XII show the effectiveness of SAD (2) and RAD (3b and 3c) against CX-1 human colon adenocarcinoma heterotransplanted into athymic mice, with three iv treatments with drugs on a weekly schedule starting on the 15th day of tumor transplant. AMD and the analogues were tested at doses of 45 and 60 ug/kg.
^a -, % T/C high than 50%; ±, % T/C close to 50%; +, % T/C from 50
to 35%; ++, % T/C from 35% to 20%; +++, % T/C lower than 20%; ++++,
regression of the tumor to a volume lower than 10% of the volume at the
start of treatment. ^b Statistically significant as evaluated by the
^a Intravenous treatment, once a week for three weeks; eight mice per
group. ^b TST; number of days between tumor transplant and starting o
treatment. ^c Numbers in parentheses; day of observation after the […]

mammary MX-1 = assay: Treatment of mammary MX-1 tumor; format: in vivo; conditions: at 60 mg/kg
lung LX-1 = assay: Treatment of lung LX-1 tumor; format: in vivo; conditions: at 60 mg/kg
[6] = tested on: P388/ADR (adriamycin resistant) leukemia; assay: Antitumor activity in vivo, P388/ADR leukemia; set-up: species or system mice; conditions: at optimal dose, ip days 1, 5, 9
Method: The analogues were also tested against P388/ADR murine leukemia following the standard protocol (Table VI).
ILS = percent increase in life span.

[7] = at optimal dose, ip days 1, 5, 9

Q: Which “Percentage of closed circular pBR322 DNA cleaved” value (from here on “Percentage”) [1] does the source give for bleomycin [BLM (bleomycin)] here?
A: 55%

Q: What about the “Percentage” value ([1]; concn 50 M (so in the source)) of the same molecule?
A: 75%

Q: What about the “Percentage” value ([1]; concn 100 M (so in the source)) of the same molecule?
A: 85%

Q: Which results are given for `Cc1nc2c(C(=O)N[C@@H]3C(=O)N[C@H](C(C)C)C(=O)N4CCC[C@H]4C(=O)N(C)CC(=O)N(C)[C@@H](C(C)C)C(=O)O[C@@H]3C)c3nc4c(C(=O)N[C@@H]5C(=O)N[C@H](C(C)C)C(=O)N6CCC[C@H]6C(=O)N(C)CC(=O)N(C)[C@@H](C(C)C)C(=O)O[C@@H]5C)c(N)c(=O)c(C)c-4oc3c(C)c2o1` [RAD I (3a)]?
A: % ILS (B16 melanoma; [7]): 124%; survivors on day 65/total injected (B16 melanoma; [7]): 6/9; MST (range), median survival time (B16 melanoma; at optimal dose, ip days 1, 5, 9, range of days of death): 65(55-62) days; optimal dose (B16 melanoma; ip, days 1, 5, 9): 300 μg/kg per inj; therapeutic index MTD/MED (P388 Leukemia; MTD in normal BDF1 mice / MED in P388 tumor bearing mice): 60; MED (minimum effective dose), dose giving 45% increase in life span over control (P388 Leukemia; ip once on days 1, 5, and 9, from plotted log-dose response data): 0.03 milligram/killogram; MTD (maximum tolerated dose), lethal dose for 10% of normal mice (LD10) [2]: 1.80 milligram/kilogram

Q: What does the source list for `COc1cccc2c1C(=O)c1c(O)c3c(c(O)c1C2=O)C[C@@](O)(C(=O)CO)C[C@@H]3O[C@H]1C[C@H](N)[C@H](O)[C@H](C)O1` [adriamycin]?
A: tumor free survivors/total on day 60 [3]: 1/8; % T/C (median survival time) (colon 38 adenocarcinoma; dose 2.0 mg/kg iv days 1, 5, 9): 103%; % inhibn of tumor (colon 38 adenocarcinoma; dose 2.0 mg/kg iv days 1, 5, 9): 29%; % T/C (median survival time) (colon 38 adenocarcinoma; dose 3.0 mg/kg iv days 1, 5, 9): 98%; % inhibn of tumor (colon 38 adenocarcinoma; dose 3.0 mg/kg iv days 1, 5, 9): 70%; % T/C (median survival time) (colon 38 adenocarcinoma; dose 4.0 mg/kg iv days 1, 5, 9): 250%; over 100 day survivors/number of mice (colon 38 adenocarcinoma; dose 4.0 mg/kg iv days 1, 5, 9): 5/9; % inhibn of tumor (colon 38 adenocarcinoma; dose 4.0 mg/kg iv days 1, 5, 9): 93%; toxic deaths ([4]; dose 2.0 mg/kg iv days 1, 5, 9): 0/9; toxic deaths ([4]; dose 3.0 mg/kg iv days 1, 5, 9): 0/9; toxic deaths ([4]; dose 4.0 mg/kg iv days 1, 5, 9): 3/9; toxic deaths ([4]; dose 5.0 mg/kg iv days 1, 5, 9): 8/9; % T/C, optimal ([5]; dose 6 × 10^3 μg/kg iv once a week for three weeks): 38%; % T/C, optimal ([5]; dose 10 × 10^3 μg/kg iv once a week for three weeks): 39%; response of CX-1 tumor to treatment (in words) ([5]; three iv treatments weekly from 15th day of transplant, at the doses tested): ineffective; response of mammary MX-1 to treatment (mammary MX-1): some positive response; response of lung LX-1 to treatment (lung LX-1): some positive response

Q: Which “tumor free survivors/total on day 60” value [3] does the source give for `CO[C@@]12[C@H](COC(N)=O)C3=C(C(=O)C(C)=C(N)C3=O)N1C[C@@H]1N[C@@H]12` [mitomycin C] here?
A: 1/8

Q: And the “tumor free survivors/total on day 60” value [6]?
A: 5/8
